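1) Cells in 96-well plates. 2) Compound, 48 h, 5 concentrations. 3) Linear interpolation between surrounding doses. 4) Unreached endpoint = highest concentration. The concentration for full growth arrest is given as TGI.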 A value given as a limit tells only on which side of the number the result lay.

Some test systems named below: A549 NSCLC; HCT-116 colon; HL-60(TB) leukemia; IGROV1 ovarian; KM12 colon; M14 melanoma; NCI-H226 lung; NCI/ADR-RES ovarian; OVCAR-8 ovarian; PC-3 prostate; RXF 393 renal; SF-539 CNS; SK-MEL-2 melanoma; SNB-75 CNS; SW-620 colon; T-47D breast; U251 CNS; UACC-62 melanoma.
Holding throughout (assay): growth of human tumour cells (NCI), 48 h

On to `c1ccc(CN2CCCN3CCN(CCCN(Cc4ccccc4)CC3)CC2)cc1`, for which the TGI is above 100 µM in the test with A549 NSCLC; above 100 µM in the test on HCT-116 colon; 82.3 µM in the test on HL-60(TB) leukemia; above 100 µM with IGROV1 ovarian; above 100 µM in the test with KM12 colon; above 100 µM with M14 melanoma. The TGI in the test on NCI-H226 lung, in the test on NCI/ADR-RES ovarian, in the test on OVCAR-8 ovarian, in the test on PC-3 prostate, in the test on RXF 393 renal and with SF-539 CNS was above 100 µM in each case. Moreover, the TGI in the test with SK-MEL-2 melanoma is 49.9 µM; in the test on SNB-75 CNS, above 100 µM; in the test on SW-620 colon, above 100 µM; in the test on T-47D breast it was above 100 µM; with U251 CNS, above 100 µM; with UACC-62 melanoma it was above 100 µM.

As to `CC(C)(Cl)C(Br)CCC(CBr)=C(Cl)CCl` (mixture of isomers), the TGI in the test on A549 NSCLC is above 10 µM; in the test with HCT-116 colon, 3.63 µM; in the test with HL-60(TB) leukemia it was 2.95 µM; in the test on IGROV1 ovarian, 2.2 µM; in the test on KM12 colon, 4.1 µM; in the test with M14 melanoma, 3.49 µM. In addition, the TGI in the test with NCI-H226 lung was above 2.46 µM; in the test on NCI/ADR-RES ovarian, 5.21 µM; in the test with OVCAR-8 ovarian it was 3.14 µM; in the test with PC-3 prostate, 5.56 µM; in the test with RXF 393 renal, 4.97 µM; in the test on SF-539 CNS, 4.07 µM. Besides, the TGI in the test with SK-MEL-2 melanoma is 4.41 µM; in the test on SNB-75 CNS it was 7.93 µM; in the test on SW-620 colon it was 5.6 µM; with T-47D breast, 5.33 µM; with U251 CNS, 3.16 µM; in the test with UACC-62 melanoma, 3.71 µM.

`C=C1C(=O)CCC1C(=O)O` (stereo unspecified): the TGI in the test with A549 NSCLC, with HCT-116 colon, in the test on HL-60(TB) leukemia, in the test on IGROV1 ovarian, in the test on KM12 colon and in the test on M14 melanoma was above 100 µM throughout. Moreover, the TGI in the test with NCI-H226 lung, with NCI/ADR-RES ovarian, with OVCAR-8 ovarian, with PC-3 prostate, in the test on RXF 393 renal and in the test on SF-539 CNS was above 100 µM throughout. Also, the TGI in the test with SK-MEL-2 melanoma, in the test on SNB-75 CNS, in the test on SW-620 colon, with T-47D breast, with U251 CNS and in the test on UACC-62 melanoma was above 100 µM throughout.

As for `N#CC(c1ccccc1)N(CCc1ccccc1)C(=O)c1ccccc1` (stereo unspecified), the TGI in the test with A549 NSCLC, in the test with HCT-116 colon, in the test with HL-60(TB) leukemia, in the test with IGROV1 ovarian, in the test with KM12 colon and in the test with M14 melanoma was above 100 µM throughout. Further, the TGI in the test on NCI-H226 lung was above 100 µM; in the test on NCI/ADR-RES ovarian it was above 100 µM; in the test on OVCAR-8 ovarian, above 100 µM; in the test on PC-3 prostate it was above 100 µM; in the test on RXF 393 renal, above 100 µM; with SF-539 CNS, above 84.7 µM. For the same compound, the TGI in the test with SK-MEL-2 melanoma is above 100 µM; with SNB-75 CNS, 57.2 µM; in the test with SW-620 colon, above 100 µM; with T-47D breast, above 100 µM; with U251 CNS it was above 100 µM; in the test with UACC-62 melanoma, above 100 µM.

Take `CCOC(=O)c1ccc(NC(=O)O/N=C(/Cl)C(C)C)cc1`: the TGI with A549 NSCLC turned out to be 47.7 µM; in the test with HCT-116 colon, 22.4 µM; in the test with HL-60(TB) leukemia, 3.26 µM; in the test with IGROV1 ovarian it was 43 µM; in the test with KM12 colon, 35.9 µM; in the test with M14 melanoma, 14.6 µM. Besides, the TGI with NCI-H226 lung stood at 50.2 µM; in the test with NCI/ADR-RES ovarian it was 37.5 µM; in the test on OVCAR-8 ovarian, 27.9 µM; in the test with PC-3 prostate it was 34.9 µM; with RXF 393 renal, 30.6 µM; in the test on SF-539 CNS it was 34.6 µM. The TGI with SK-MEL-2 melanoma was 29.3 µM; with SNB-75 CNS, 27.4 µM; in the test on SW-620 colon it was 4.32 µM; in the test with T-47D breast, 6.62 µM; in the test on U251 CNS, 36.3 µM; with UACC-62 melanoma it was 38.2 µM.

As to `CC(C)C(C/C=C1/CC(CO)(COC(=O)C(C)(C)C)OC1=O)C(C)C` (stereo unspecified), the TGI in the test with A549 NSCLC came out at 15.3 µM; with HCT-116 colon, 27.5 µM; in the test with HL-60(TB) leukemia, 16.2 µM; in the test on IGROV1 ovarian, 31.5 µM; in the test on KM12 colon it was 27.3 µM; with M14 melanoma, 24.4 µM. For the same compound, the TGI stood at 22.7 µM with NCI-H226 lung; 36.6 µM with NCI/ADR-RES ovarian; 36.4 µM in the test on OVCAR-8 ovarian; 21.1 µM in the test with PC-3 prostate; 30.5 µM in the test with RXF 393 renal; 15.4 µM with SF-539 CNS. Besides, the TGI in the test on SK-MEL-2 melanoma turned out to be 29.9 µM; in the test on SNB-75 CNS, 21.1 µM; in the test with SW-620 colon, 19 µM; with T-47D breast it was 23.3 µM; with U251 CNS, 27.5 µM; in the test with UACC-62 melanoma, 26 µM.

On to `FC(F)(F)c1ccc2c(c1)nc(Cc1ccc(Cl)c(Cl)c1)n2CC1CCCN2CCCCC12` (stereo unspecified), for which the TGI in the test with A549 NSCLC is 44.2 µM; in the test with HCT-116 colon, 30.6 µM; in the test with HL-60(TB) leukemia, 51.3 µM; in the test with IGROV1 ovarian it was above 100 µM; in the test with KM12 colon, above 100 µM; in the test with M14 melanoma, 25.2 µM. Besides, the TGI in the test on NCI-H226 lung is 90.7 µM; with NCI/ADR-RES ovarian, 84.7 µM; in the test with OVCAR-8 ovarian it was above 100 µM; in the test on PC-3 prostate, above 100 µM; with RXF 393 renal it was above 100 µM; with SF-539 CNS, 40 µM. The TGI is 76.3 µM in the test on SK-MEL-2 melanoma; above 100 µM in the test with SNB-75 CNS; above 100 µM in the test on SW-620 colon; above 100 µM with T-47D breast; 59.7 µM in the test with U251 CNS; 30.2 µM in the test on UACC-62 melanoma.

Values taken from PubChem BioAssay (NCI).
